Test results published in US8609672B2, “Piperazinylpyrimidine analogues as protein kinase inhibitors” (University of the Pacific, priority 2010, dated 2013).

How the values were obtained:
[1] = test system: NCI-H522; test: NCI-60 SRB growth inhibition: NCI-H522; assay type: cell-based, human; details: NCI-H522, Non-small cell lung cancer; 48 hours treatment
[2] = test system: SK-OV-3; test: NCI-60 SRB growth inhibition: SK-OV-3; assay type: cell-based, human; details: SK-OV-3, Ovarian cancer; 48 hours treatment
[3] = biological target: T1, ABL1(F317I) (Homo sapiens, UniProt P00519, F317I); test: Kinase binding screening: ABL1(F317I); details: 10 μM compound, phosphorylated form, read-out: B-POC (binding percentage of control)
T1 construct: purchased Ambit Bioscience (assay service)
T1 sequence (P00519 whole entry F317I): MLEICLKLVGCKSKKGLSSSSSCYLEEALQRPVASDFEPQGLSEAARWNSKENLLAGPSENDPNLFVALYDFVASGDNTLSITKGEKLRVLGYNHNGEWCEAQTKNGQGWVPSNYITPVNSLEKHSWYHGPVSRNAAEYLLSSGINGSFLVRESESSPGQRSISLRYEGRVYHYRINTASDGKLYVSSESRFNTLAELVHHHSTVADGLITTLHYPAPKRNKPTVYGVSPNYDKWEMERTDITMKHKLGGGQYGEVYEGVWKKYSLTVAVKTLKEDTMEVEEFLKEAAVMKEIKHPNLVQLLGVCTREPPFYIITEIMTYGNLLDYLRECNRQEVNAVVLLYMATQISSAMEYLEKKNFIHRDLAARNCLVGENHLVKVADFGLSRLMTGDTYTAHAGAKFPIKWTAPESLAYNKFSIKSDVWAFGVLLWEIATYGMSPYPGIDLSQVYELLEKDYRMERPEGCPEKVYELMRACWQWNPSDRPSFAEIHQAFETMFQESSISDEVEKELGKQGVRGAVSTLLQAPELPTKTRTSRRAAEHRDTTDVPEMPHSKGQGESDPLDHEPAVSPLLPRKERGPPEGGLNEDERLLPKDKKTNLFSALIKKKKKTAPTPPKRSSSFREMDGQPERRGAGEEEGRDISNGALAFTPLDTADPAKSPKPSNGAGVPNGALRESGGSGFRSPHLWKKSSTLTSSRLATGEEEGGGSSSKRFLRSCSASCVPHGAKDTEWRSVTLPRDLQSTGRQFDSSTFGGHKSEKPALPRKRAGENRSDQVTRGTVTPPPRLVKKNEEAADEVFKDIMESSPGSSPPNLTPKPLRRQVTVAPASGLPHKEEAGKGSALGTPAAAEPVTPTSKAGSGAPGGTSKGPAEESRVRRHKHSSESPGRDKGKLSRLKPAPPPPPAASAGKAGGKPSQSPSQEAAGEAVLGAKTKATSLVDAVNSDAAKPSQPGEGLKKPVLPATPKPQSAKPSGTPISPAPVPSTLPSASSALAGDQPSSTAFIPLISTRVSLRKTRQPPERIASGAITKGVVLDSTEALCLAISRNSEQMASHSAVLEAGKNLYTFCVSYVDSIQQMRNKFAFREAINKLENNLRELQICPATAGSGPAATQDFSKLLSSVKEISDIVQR
Procedure: (§1) Biotinylated kinase ligand was immobilized onto streptavidin coated magnetic beads and washed with blocking buffer. The liganded beads were then incubated with DNA-tagged kinase in the presence of test compound for 1 h at room temperature. Binding reactions were carried out in 20% Seablock, 0.17×PBS, 0.005% Tween 20, 6 mM DTT, in a final volume of 0.04 mL. Beads were then washed with wash buffer (PBS, 0.05% Tween 20), and then incubated with elution buffer (PBS, 0.05% Tween […] non-biotinylated kinase ligand) and eluted. The kinase concentration in the eluate was then measured by quantitative PCR. […] The results of this single dose screening are reported in the form of binding percentage of control (B-POC) which is defined as follows:
(§2) [formula] The negative control signal is obtained by the vehicle and corresponds to B-POC=100%. The positive signal control is detected by a binding positive compound and is B-POC 0%. The B-POC results are the average of duplicate measurements. Only interactions with […] were considered significant and thus used for calculating the selectivity scores (Table 1) of the test compounds as follows:
(§3) [formula] […] The Kd is then calculated according to the following equation:
(§4) [formula] hill slope=−1. A non-linear least square fit with the Levenberg-Marquardt algorithm was implemented to fit the curves (FIG. 3). […]

[4] = test system: HOP-92; test: NCI-60 SRB growth inhibition: HOP-92; assay type: cell-based, human; details: HOP-92, Non-small cell lung cancer; 48 hours treatment
[5] = test system: M14; test: NCI-60 SRB growth inhibition: M14; assay type: cell-based, human; details: M14, Melanoma, 48 hours treatment; for CC50: Homo sapiens, read-out: LC50 (the source's name)
[6] = test system: T-47D; test: NCI-60 SRB growth inhibition: T-47D; assay type: cell-based, human; details: Breast cancer, 48 hours treatment; for CC50: Homo sapiens, T47D, read-out: LC50 (the source's name)
[7] = test system: HT29; test: NCI-60 SRB growth inhibition: HT29; assay type: cell-based, human; details: HT29, Colon cancer, 48 hours treatment; for CC50: Homo sapiens, HT-29, read-out: LC50 (the source's name)
[8] = test system: SNB-75; test: NCI-60 SRB growth inhibition: SNB-75; assay type: cell-based, human; details: SNB-75, CNS cancer, 48 hours treatment; for CC50: Homo sapiens, read-out: LC50 (the source's name)
[9] = test system: CCRF-CEM; test: NCI-60 SRB growth inhibition: CCRF-CEM; assay type: cell-based, human; details: Leukemia, 48 hours treatment
[10] = test system: MDA-MB-468; test: NCI-60 SRB growth inhibition: MDA-MB-468; assay type: cell-based, human; details: MDA-MB-468, Breast cancer, 48 hours treatment; for CC50: Homo sapiens, read-out: LC50 (the source's name)
[11] = biological target: T2, ABL kinase (Homo sapiens, UniProt P00519); test: Functional kinase inhibition assay: ABL; assay type: biochemical; details: 1 μM compound
T2 construct: purchased Millipore Corp. (Dundee, UK; assay service)
T2 sequence (P00519 whole entry): as the sequence (P00519 whole entry F317I) above, with I317F counted along it
Procedure: [formula] The assay was performed in duplicates.
The results of kinase function inhibition assay are shown in Table 6, including the F-POC of 1 μM of compounds 4, 15, and 16 against the most sensitive kinases tested within this experiment. […] Kinases within the same subfamily are highlighted.

[12] = biological target: T3, ABL1(F317L) (Homo sapiens, UniProt P00519, F317L); test: Kinase binding screening: ABL1(F317L); details: 10 μM compound, phosphorylated form, read-out: B-POC (binding percentage of control)
T3 construct: purchased Ambit Bioscience (assay service)
T3 sequence (P00519 whole entry F317L): as the sequence (P00519 whole entry F317I) above, with I317L counted along it
Procedure: as §1, §2, §3, §4

[13] = test system: MDA-MB-468; test: Annexin V assay, MDA-MB-468 cells; assay type: cell-based, human; details: MDA-MB-468, higher doses, within 24 hours
[14] = test system: MDA-MB-468; test: Cell cycle analysis of MDA-MB-468 cells; assay type: cell-based, human; details: MDA-MB-468, within 24 hours

Q: `c1ccc(Cc2cnc(N3CCN(c4ncnc5ccccc45)CC3)nc2)cc1` [Compound 4, 4-(4-(5-benzylpyrimidin-2-yl)piperazin-1-yl)quinazoline] was tested. Which TGI [1] did it give?
A: 40.30 µM

Q: What about the TGI [2] of the same compound?
A: >100 µM

Q: What about the remaining activity at 10 µM [3] of the same compound?
A: 30%

Q: What about the TGI [4] of the same compound?
A: 24.20 µM

Q: What about the CC50 [5] of the same compound?
A: 51.6 µM

Q: And the TGI [5]?
A: 26.30 µM

Q: And the TGI [6]?
A: 45.50 µM

Q: What about the CC50 [6] of the same compound?
A: > 100 µM

Q: And the TGI [7]?
A: 35.10 µM

Q: And the CC50 [7]?
A: 79.2 µM

Q: And the CC50 [8]?
A: > 100 µM

Q: And the TGI [8]?
A: 78.20 µM

Q: What about the TGI [9] of the same compound?
A: 64.40 µM

Q: And the CC50 [10]?
A: > 100 µM

Q: And the TGI [10]?
A: 2.73 µM

Q: What about the “inhibitory action over ABL kinase function” value [11] of the same compound?
A: without affecting ABL subfamily members

Q: For `CCc1cnc(N2CCN(C(=O)c3ccc(CNc4ncnc5ccccc45)cc3)CC2)nc1` [Compound 15, (4-(5-ethylpyrimidin-2-yl)piperazin-1-yl)(4-((quinazolin-4-ylamino)methyl)phenyl)methanone], which TGI [1] is on record?
A: 55.40 µM

Q: What about the TGI [2] of the same compound?
A: >100 µM

Q: What about the TGI [4] of the same compound?
A: 80.09 µM

Q: What about the CC50 [5] of the same compound?
A: 93.7 µM

Q: What about the TGI [5] of the same compound?
A: 32.70 µM

Q: And the remaining activity at 10 µM [12]?
A: 6.8%

Q: What about the “apoptosis (Annexin V)” value [13] of the same compound?
A: a significant fraction of the tumor cells undergo apoptosis

Q: And the TGI [6]?
A: >100 µM

Q: And the CC50 [6]?
A: > 100 µM

Q: What about the cell cycle effect [14] of the same compound?
A: arrest at the G2/M phase of the cell cycle

Q: And the TGI [7]?
A: 83.20 µM

Q: And the CC50 [7]?
A: > 100 µM

Q: What about the CC50 [8] of the same compound?
A: > 100 µM

Q: And the TGI [8]?
A: 58.20 µM

Q: What about the TGI [9] of the same compound?
A: 60.90 µM

Q: What about the CC50 [10] of the same compound?
A: > 100 µM

Q: What about the TGI [10] of the same compound?
A: 2.22 µM

Q: What about the “inhibitory action over ABL kinase function” value [11] of the same compound?
A: weak inhibitory action

Q: For `O=C(c1cccc(Nc2ncnc3ccccc23)c1)N1CCN(c2ncc(Cc3ccccc3)cn2)CC1` [Compound 16, (4-(5-benzylpyrimidin-2-yl)piperazin-1-yl)(3-(quinazolin-4-ylamino)phenyl)methanone], which TGI [1] is on record?
A: 2.09 µM

Q: What about the TGI [2] of the same compound?
A: 4.47 µM

Q: What about the remaining activity at 10 µM [3] of the same compound?
A: 20%

Q: What about the CC50 [5] of the same compound?
A: 4.68 µM

Q: And the TGI [5]?
A: 2.14 µM

Q: And the TGI [6]?
A: 7.59 µM

Q: What about the CC50 [6] of the same compound?
A: 5.62 µM

Q: And the TGI [7]?
A: 9.33 µM

Q: And the CC50 [7]?
A: > 100 µM

Q: What about the CC50 [8] of the same compound?
A: > 100 µM

Q: And the TGI [8]?
A: 5.89 µM

Q: And the CC50 [10]?
A: > 100 µM

Q: What about the TGI [10] of the same compound?
A: 3.47 µM

Q: What about the “inhibitory action over ABL kinase function” value [11] of the same compound?
A: weak inhibitory action
